The structures appear in SMILES notation.

The assay deals with T1, full-length human PKCι (Homo sapiens, UniProt P41743).
T1 construct: Recombinant, full-length human PKCι expressed in Sf21 insect cells is also commercially available; purchased; host or cells: Sf21 insect cells
T1 sequence (P41743 1-596): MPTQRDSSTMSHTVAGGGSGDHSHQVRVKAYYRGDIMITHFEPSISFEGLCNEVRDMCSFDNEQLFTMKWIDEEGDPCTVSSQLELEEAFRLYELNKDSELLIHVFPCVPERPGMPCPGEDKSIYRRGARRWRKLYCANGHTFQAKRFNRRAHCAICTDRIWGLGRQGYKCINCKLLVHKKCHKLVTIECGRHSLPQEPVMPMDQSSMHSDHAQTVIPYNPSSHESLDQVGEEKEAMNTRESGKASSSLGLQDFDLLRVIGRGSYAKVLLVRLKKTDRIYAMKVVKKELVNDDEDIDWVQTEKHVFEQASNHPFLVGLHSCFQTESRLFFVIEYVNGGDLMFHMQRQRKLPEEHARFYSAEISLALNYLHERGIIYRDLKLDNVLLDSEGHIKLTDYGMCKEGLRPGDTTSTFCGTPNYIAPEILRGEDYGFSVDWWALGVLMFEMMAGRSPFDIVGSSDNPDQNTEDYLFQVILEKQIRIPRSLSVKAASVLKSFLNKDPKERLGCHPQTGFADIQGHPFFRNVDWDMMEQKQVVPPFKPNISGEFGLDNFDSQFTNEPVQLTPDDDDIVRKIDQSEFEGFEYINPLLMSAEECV
Kind of assay: PKCι IC50 IMAP assay, full-length PKCι at 150 μM ATP. To be noted: read-out: IC50 in IMAP assay against full length PKCi at 150 μM ATP. It counts as biochemical. The gist of the method: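 Dose-response IC50 values come from IMAP fluorescence polarisation after 60 min room-temperature turnover of 100 nM FAM peptide by ~15 pM insect-cell-expressed full-length PKCι at 150 μM ATP (5× KM^APP), normalised to no-compound and no-enzyme controls.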
In the case of `COc1cncc2nc(-c3ccnc(Nc4ccc(C#N)cn4)c3)nc(N[C@@H]3CCNC3)c12` [Example 344, 6-{4-[5-Methoxy-4-((R)-pyrrolidin-3-ylamino)-pyrido[3,4-d]pyrimidin-2-yl]-pyridin-2-ylamino}-nicotinonitrile], the IC50 (as a rule, the concentration that inhibits the measured activity by half) is < 100 nM.

Turning to `Cc1ccc(Nc2cc(-c3nc(N[C@@H]4CCNC4)c4ccncc4n3)ccn2)nc1` [Example 345, {2-[2-(5-Methyl-pyridin-2-ylamino)-pyridin-4-yl]-pyrido[3,4-d]pyrimidin-4-yl}-(R)-pyrrolidin-3-yl-amine], the IC50 was < 100 nM.

With `Clc1ccc(Nc2cc(-c3nc(N[C@@H]4CCNC4)c4ccncc4n3)ccn2)nc1` [Example 346, {2-[2-(5-Chloro-pyridin-2-ylamino)-pyridin-4-yl]-pyrido[3,4-d]pyrimidin-4-yl}-(R)-pyrrolidin-3-yl-amine], the IC50 was < 100 nM.

Regarding `c1cc(Nc2cc(-c3nc(N[C@@H]4CCNC4)c4ccncc4n3)ccn2)ncn1` [Example 347, {2-[2-(Pyrimidin-4-ylamino)-pyridin-4-yl]-pyrido[3,4-d]pyrimidin-4-yl}-(R)-pyrrolidin-3-yl-amine], the IC50 is < 100 nM.

Take `N#Cc1cccc(CC(=O)Nc2cc(-c3nc(N[C@@H]4CCNC4)c4ccncc4n3)ccn2)c1` [Example 348, 2-(3-Cyano-phenyl)-N-{4-[4-((R)-pyrrolidin-3-ylamino)-pyrido[3,4-d]pyrimidin-2-yl]-pyridin-2-yl}-acetamide]: the IC50 was < 100 nM.

With `N#Cc1ccc(CC(=O)Nc2cc(-c3nc(N[C@@H]4CCNC4)c4ccncc4n3)ccn2)cc1` [Example 349, 2-(4-Cyano-phenyl)-N-{4-[4-((R)-pyrrolidin-3-ylamino)-pyrido[3,4-d]pyrimidin-2-yl]-pyridin-2-yl}-acetamide], the IC50 was < 100 nM.

Regarding `FC(F)(F)c1ccnc(Nc2cc(-c3nc(N[C@@H]4CCNC4)c4ccncc4n3)ccn2)c1` [Example 350, (R)-Pyrrolidin-3-yl-{2-[2-(4-trifluoromethyl-pyridin-2-ylamino)-pyridin-4-yl]-pyrido[3,4-d]pyrimidin-4-yl}-amine], the IC50 was < 100 nM.

For `FC(F)(F)c1ccc(Nc2cc(-c3nc(N[C@@H]4CCNC4)c4ccncc4n3)ccn2)nc1` [Example 351, (R)-Pyrrolidin-3-yl-{2-[2-(5-trifluoromethyl-pyridin-2-ylamino)-pyridin-4-yl]-pyrido[3,4-d]pyrimidin-4-yl}-amine], the IC50 is < 100 nM.

In the case of `COc1cncc2nc(-c3ccnc(Nc4cc(C#N)ccn4)c3)nc(N3CCNCC3)c12` [Example 352, 2-[4-(5-Methoxy-4-piperazin-1-yl-pyrido[3,4-d]pyrimidin-2-yl)-pyridin-2-ylamino]-isonicotinonitrile], the IC50 was < 100 nM.

On to `COc1cncc2nc(-c3ccnc(Nc4ccc(C#N)cn4)c3)nc(N3CCNCC3)c12` [Example 353, 6-[4-(5-Methoxy-4-piperazin-1-yl-pyrido[3,4-d]pyrimidin-2-yl)-pyridin-2-ylamino]-nicotinonitrile], for which the IC50 is < 100 nM.

Take `COc1cncc2nc(-c3ccnc(Nc4ccccc4)c3)nc(N3CCC(N4CCOCC4)CC3)c12` [Example 354, {4-[5-Methoxy-4-(4-morpholin-4-yl-piperidin-1-yl)-pyrido[3,4-d]pyrimidin-2-yl]-pyridin-2-yl}-phenyl-amine]: the IC50 fell in the range of 1000 to 10000 nM.

As to `COc1cncc2nc(-c3ccnc(NC(=O)Cc4ccc(C#N)cc4)c3)nc(N3CCNCC3)c12` [Example 355, 2-(4-Cyano-phenyl)-N-[4-(5-methoxy-4-piperazin-1-yl-pyrido[3,4-d]pyrimidin-2-yl)-pyridin-2-yl]-acetamide], the IC50 was < 100 nM.

Take `COc1cncc2nc(-c3ccnc(NC(=O)Cc4cccc(C#N)c4)c3)nc(N3CCNCC3)c12` [Example 356, 2-(3-Cyano-phenyl)-N-[4-(5-methoxy-4-piperazin-1-yl-pyrido[3,4-d]pyrimidin-2-yl)-pyridin-2-yl]-acetamide]: the IC50 was < 100 nM.

For `c1cc2c(N[C@@H]3CCNC3)nc(-c3ccnc(Nc4ccc(N5CCOCC5)cn4)c3)nc2cn1` [Example 357, {2-[2-(5-Morpholin-4-yl-pyridin-2-ylamino)-pyridin-4-yl]-pyrido[3,4-d]pyrimidin-4-yl}-(R)-pyrrolidin-3-yl-amine], the IC50 was < 100 nM.

Take `COc1cc(N2CCOCC2)ccc1Nc1cc(-c2nc(N[C@@H]3CCNC3)c3ccncc3n2)ccn1` [Example 358, {2-[2-(2-Methoxy-4-morpholin-4-yl-phenylamino)-pyridin-4-yl]-pyrido[3,4-d]pyrimidin-4-yl}-(R)-pyrrolidin-3-yl-amine]: the IC50 was 100 to 1000 nM.

In the case of `COc1cc(N2CCOCC2)ccc1Nc1cc(-c2nc(N3CCNCC3)c3c(OC)cncc3n2)ccn1` [Example 359, (2-Methoxy-4-morpholin-4-yl-phenyl)-[4-(5-methoxy-4-piperazin-1-yl-pyrido[3,4-d]pyrimidin-2-yl)-pyridin-2-yl]-amine], the IC50 was 100 to 1000 nM.

Regarding `COc1cc(N2CCOCC2)ccc1Nc1cc(-c2nc(N[C@@H]3CCNC3)c3c(OC)cncc3n2)ccn1` [Example 360, {5-Methoxy-2-[2-(2-methoxy-4-morpholin-4-yl-phenylamino)-pyridin-4-yl]-pyrido[3,4-d]pyrimidin-4-yl}-(R)-pyrrolidin-3-yl-amine], the IC50 lay within 100 to 1000 nM.

`COc1cncc2nc(-c3ccnc(Nc4ccc(C5CCOCC5)cc4)c3)nc(N[C@@H]3CCNC3)c12` [Example 361, (5-Methoxy-2-{2-[4-(tetrahydro-pyran-4-yl)-phenylamino]-pyridin-4-yl}-pyrido[3,4-d]pyrimidin-4-yl)-(R)-pyrrolidin-3-yl-amine]: the IC50 is < 100 nM.

As to `COc1cncc2nc(-c3ccnc(Nc4ccc(C5CCOCC5)cc4)c3)nc(N3CCNCC3)c12` [Example 362, [4-(5-Methoxy-4-piperazin-1-yl-pyrido[3,4-d]pyrimidin-2-yl)-pyridin-2-yl]-[4-(tetrahydro-pyran-4-yl)-phenyl]-amine], the IC50 was < 100 nM.

For `COc1cncc2nc(-c3ccnc(Nc4cc(C)ccn4)c3)nc(N3CCNCC3)c12` [Example 363, [4-(5-Methoxy-4-piperazin-1-yl-pyrido[3,4-d]pyrimidin-2-yl)-pyridin-2-yl]-(4-methyl-pyridin-2-yl)-amine], the IC50 is < 100 nM.

On to `COc1cncc2nc(-c3ccnc(Nc4ccc(C)cn4)c3)nc(N3CCNCC3)c12` [Example 364, [4-(5-Methoxy-4-piperazin-1-yl-pyrido[3,4-d]pyrimidin-2-yl)-pyridin-2-yl]-(5-methyl-pyridin-2-yl)-amine], for which the IC50 is < 100 nM.

With `COc1cncc2nc(-c3ccnc(Nc4cc(Cl)ccn4)c3)nc(N3CCNCC3)c12` [Example 365, (4-Chloro-pyridin-2-yl)-[4-(5-methoxy-4-piperazin-1-yl-pyrido[3,4-d]pyrimidin-2-yl)-pyridin-2-yl]-amine], the IC50 is < 100 nM.

As for `COc1cncc2nc(-c3ccnc(Nc4ccc(Cl)cn4)c3)nc(N3CCNCC3)c12` [Example 366, (5-Chloro-pyridin-2-yl)-[4-(5-methoxy-4-piperazin-1-yl-pyrido[3,4-d]pyrimidin-2-yl)-pyridin-2-yl]-amine], the IC50 is < 100 nM.

Turning to `COc1cncc2nc(-c3ccnc(Nc4cc(C(F)(F)F)ccn4)c3)nc(N3CCNCC3)c12` [Example 367, [4-(5-Methoxy-4-piperazin-1-yl-pyrido[3,4-d]pyrimidin-2-yl)-pyridin-2-yl]-(4-trifluoromethyl-pyridin-2-yl)-amine], the concentration for half-maximal inhibition (IC50) is < 100 nM.

Regarding `COc1cncc2nc(-c3ccnc(Nc4ccc(C(F)(F)F)cn4)c3)nc(N3CCNCC3)c12` [Example 368, [4-(5-Methoxy-4-piperazin-1-yl-pyrido[3,4-d]pyrimidin-2-yl)-pyridin-2-yl]-(5-trifluoromethyl-pyridin-2-yl)-amine], the IC50 is < 100 nM.

Take `COc1cncc2nc(-c3ccnc(NC(=O)Cc4ccc(Cl)cc4)c3)nc(N3CCNCC3)c12` [Example 369, 2-(4-Chloro-phenyl)-N-[4-(5-methoxy-4-piperazin-1-yl-pyrido[3,4-d]pyrimidin-2-yl)-pyridin-2-yl]-acetamide]: the IC50 is < 100 nM.

On to `COc1cncc2nc(-c3ccnc(NC(=O)Cc4cccc(Cl)c4)c3)nc(N3CCNCC3)c12` [Example 370, 2-(3-Chloro-phenyl)-N-[4-(5-methoxy-4-piperazin-1-yl-pyrido[3,4-d]pyrimidin-2-yl)-pyridin-2-yl]-acetamide], for which the IC50 was < 100 nM.

For the compound `COc1cncc2nc(-c3ccnc(NC(=O)Cc4ccccc4)c3)nc(N3CCNCC3)c12` [Example 371, N-[4-(5-Methoxy-4-piperazin-1-yl-pyrido[3,4-d]pyrimidin-2-yl)-pyridin-2-yl]-2-phenyl-acetamide], the IC50 is < 100 nM.

With `COc1cccc(CC(=O)Nc2cc(-c3nc(N4CCNCC4)c4c(OC)cncc4n3)ccn2)c1` [Example 372, 2-(3-Methoxy-phenyl)-N-[4-(5-methoxy-4-piperazin-1-yl-pyrido[3,4-d]pyrimidin-2-yl)-pyridin-2-yl]-acetamide], the IC50 was < 100 nM.

(Values after US9914730B2, “Azaquinazoline inhibitors of Atypical protein Kinase C” (Ignyta, Inc., priority 2012, dated 2018).)
